Assay results published in patent publication EP0856511B1, “Calcium salt of indomethacin pentahydrate and its preparation” (Promindus (Actions Promotionnelles dans l'Industrie et le …, priority 1997, dated 1998).

Experiments:
[1] = Lethal dose 50 % (DL50) per os in the rat; type: in vivo
Text: (§1) En effet, les comparaisons respectives des DE50 (dose efficace 50 %) et DL50 (dose léthale 50 %) per os, chez le rat, de ladite indométacine calcique pentahydratée et de ladite indométacine libre sont nettement à l'avantage de ladite indométacine calcique.

[2] = Effective dose 50 % (DE50) per os in the rat; type: in vivo
Text: as §1

[3] = in vivo
[4] = Solubility description in water and organic solvents; type: physicochemical

Work on `COc1ccc2c(c1)c(CC(=O)O)c(C)n2C(=O)c1ccc(Cl)cc1` [Indométacine, acide 1-(p-chlorobenzoyl)-5-méthoxy-2-méthylindole-3-acétique, reference compound] yielded an LD50 ([1]; in vivo, po, dose léthale 50 %, per os, rat) of 28 mg/kg and an ED50 ([2]; po, dose efficace 50 %, per os, rat) of 3 mg/kg.
With indométacine calcique pentahydratée the DL50 ([1]; dose léthale 50 %, per os, rat) was 45 mg/kg, the “toxicité par voie orale” value ([1]; par voie orale, compared with the acid form) was “une toxicité diminuée” and the “Index thérapeutique : DL50/DE50” value ([1]; per os, rat, ratio DL50/DE50) was 18. The activité pharmacologique ([2]; compared with the acid form) was “équivalente”, the DE50 ([2]; dose efficace 50 %, per os, rat) was 2,5 mg/kg and the “tolérance locale par voie rectale” value [3] was “une meilleure tolérance locale”. The “solubilité dans l'acétonitrile” value [4] was “pratiquement insoluble”, the “solubilité dans l'eau” value [4] was “pratiquement insoluble” and the “solubilité dans l'éther” value [4] was “pratiquement insoluble”. For the same compound, the “solubilité dans le chloroforme” value ([4]; chloroforme) was “pratiquement insoluble”, the “solubilité dans le diméthylformamide” value ([4]; diméthylformamide) was “facilement soluble” and the “solubilité dans le tétrahydrofuranne” value ([4]; tétrahydrofuranne) was “soluble”.
